We go through 19 compounds from patent US9296755B2, “3,4-dihydro-1H-pyrimido[1,6-a]pyrimidin-6(2H)-one compounds and their therapeutic applications” (GlaxoSmithKline Intellectual Property Development Limited, priority 2013, dated 2016).

Each structure is given as a SMILES string.

The target of one assay is T1, Lp-PLA2 in human plasma (Homo sapiens, UniProt Q13093).
T1 construct: from tissue; host or cells: pooled human plasma
T1 sequence (Q13093 22-441): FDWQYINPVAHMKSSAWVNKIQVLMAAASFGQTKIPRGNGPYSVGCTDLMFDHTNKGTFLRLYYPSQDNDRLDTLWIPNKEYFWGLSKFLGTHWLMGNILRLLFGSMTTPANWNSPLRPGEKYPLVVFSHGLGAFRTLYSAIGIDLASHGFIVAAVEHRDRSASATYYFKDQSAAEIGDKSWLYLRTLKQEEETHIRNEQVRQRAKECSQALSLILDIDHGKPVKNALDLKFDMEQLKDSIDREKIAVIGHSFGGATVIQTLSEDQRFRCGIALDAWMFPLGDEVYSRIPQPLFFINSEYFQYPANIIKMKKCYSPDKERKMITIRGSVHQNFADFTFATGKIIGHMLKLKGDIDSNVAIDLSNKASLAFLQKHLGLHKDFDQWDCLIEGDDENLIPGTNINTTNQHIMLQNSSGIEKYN
The experiment in a line: Lp-PLA2 human plasma assay (Thio-PAF assay). The format is biochemical. Conditions: pooled human plasma; read-out: pIC50 in the thio-PAF assay (converted). The text has this: (3) Lipoprotein-Associated Phospholipase A2 (Lp-PLA2) Human Plasma Assay (Also Referred to as “Thio-PAF Assay”)
The human plasma assay utilizes a thioester analog of PAF (phosphatidylcholine), where hydrolysis yields to the formation of a phospholipid containing a free thiol group. The amount of thiol is quantitated continuously by reacting with CPM (7-diethylamino-3-(4′-maleimidylphenyl)-4-methylcoumarin), a maleimide which increases in fluoresence after Michael addition of thiols. This assay may detect the activity of Lp-PLA2 in human plasma, as determined by specific inhibition by Lp-PLA2 inhibitors.
The thio-PAF assay was run as a quenched 15 μL assay. Compounds source plate was prepared by making 1:3 (by volume) serial dilution of the compounds into pure DMSO on 384-well microplate. 0.01 μL of compounds on compound source plate were transferred to 384 well Greiner 784076 (black) low-volume plates by ECHO liquid dispenser. 8 μL pooled human plasma, which was previously aliquoted and frozen, was added. Plates were centrifuged for 10 sec at 500 rpm. After 30 minutes preincubation, 2 μL of substrate solution comprising 2.5 mM 2-thio-PAF [from ethanol stock], 32 μM CPM [from a DMSO stock] and 3.2 mM NEM (N-ethylmaleimide) [made fresh daily in DMSO] in assay buffer of 50 mM HEPES, pH 7.4, 150 mM NaCl, 1 mM CHAPS was added to 384 well Greiner 784076 (black) low-volume plates by BRAVO liquid handling station. After 2 mins, reaction was quenched with 5 μL of 5% aqueous trifluoroacetic acid (TFA). Plates were covered to protect from light and incubated for 40 min at room temperature. Plates were read at ex: 380/em: 485 using Envision microplate reader. PIC50 data, curve and QC analysis were conducted by using XLFit module in Excel.

Assay [1] addresses T2, recombinant human Lp-PLA2 (Homo sapiens, UniProt Q13093).
T2 sequence (Q13093 22-441): T1 sequence (Q13093 22-441)
The assay is described as follows: Recombinant human Lp-PLA2 assay (rhLp-PLA2, PED6 assay). The format is biochemical. Conditions: recombinant human Lp-PLA2, PED6 substrate; read-out: rhLp-PLA2 (PED6 assay) (pIC50) (converted). The text has this: (1) Recombinant Human Lp-PLA2 Assay (rhLp-PLA2) (Also Referred to as “PED6” Assay)
N-((6-(2,4-dinitrophenyl)amino)-hexanoyl)-2-(4,4-difluoro-5,7-dimethyl-4-bora-3a,4a-diaza-s-indacene-3-pentanoyl)-1-hexadecanoyl-sn-glycero-3-phosphoethanolamine, triethylammonium salt (PED6) is a commercially available fluorescently-labeled phospholipid, which is commercially available from Invitrogene and Molecular Probes. There is a quenching […] and a Bodipy fluorescein (FL) group in the sn2 position. Upon cleavage with Lp-PLA2, the Bodipy FL group is liberated and then may result in an increase in fluorescence. Inhibitors of Lp-PLA2 therefore prevent this cleavage and no fluorescent increase is observed.
The PED6 assay was run as an unquenched 10 μL assay. The source plate containing the compounds to be tested was prepared by making 1:3 (by volume) serial dilution of the compounds within DMSO on 384-well microplate. Then, 0.01 μL of the compounds on compound source plate were transferred into 384 well Greiner 784076 (black) plates using ECHO liquid dispenser. 5 μL of recombinant human Lp-PLA2 enzyme (4 nM (or 110 pM) rhLp-PLA2 in assay buffer of 50 mM HEPES, pH 7.4, 150 mM NaCl, 1 mM CHAPS) was added to each well of the plate. Plates were centrifuged for 10 sec at 500 rpm. After 30 minutes preincubation, 5 μL of substrate (4 μM (or 5 μM) PED6 [from 5 mM DMSO stock] in assay buffer of 50 mM HEPES, pH 7.4, 150 mM NaCl, 1 mM CHAPS) was added to 384 well Greiner 784076 (black) plates. Plates were centrifuged for 10 sec at 500 rpm. The plate was covered to protect it from light and incubated for 20 min at room temperature. The plates were read for fluorescence intensity at ex: 480/em: 540 using ViewLux microplate imager for Envision spectrofluroimeters. PIC50 data, curve and QC analysis was conducted by using XL fit module in Excel.

In the case of `O=C(CN1CCCn2c1cc(OCc1ccc(F)c(F)c1)nc2=O)N1CCCCC1` [Example E21, 8-((3,4-difluorobenzyl)oxy)-1-(2-oxo-2-(piperidin-1-yl)ethyl)-3,4-dihydro-H-pyrimido[1,6-a]pyrimidin-6(2H)-one], the IC50 on Lp-PLA2 in human plasma is not above 100 nM. Still for that read-out and setting: as for `O=c1nc(OCc2ccc(F)c(F)c2)cc2n1CCCN2Cc1ccc(F)cc1` [Example E3, 8-((3,4-difluorobenzyl)oxy)-1-(4-fluorobenzyl)-3,4-dihydro-1H-pyrimido[1,6-a]pyrimidin-6(2H)-one], the figure is not above 100 nM. Turning to `N#Cc1cc(COc2cc3n(c(=O)n2)CCCN3C2CC2)ccc1Oc1ccc(Cl)c(C(F)(F)F)c1` [Example E11, 2-(4-chloro-3-(trifluoromethyl)phenoxy)-5-(((1-cyclopropyl-6-oxo-2,3,4,6-tetrahydro-1H-pyrimido[1,6-a]pyrimidin-8-yl)oxy)methyl)benzonitrile], the IC50 at Lp-PLA2 in human plasma is not above 100 nM; in assay [1], 0.794 nM. Taken in the same sequence, the figures for `O=C(CN1CCCn2c1cc(OCc1ccc(F)c(F)c1)nc2=O)N1CCC(F)(F)CC1` [Example E20, 8-((3,4-difluorobenzyl)oxy)-1-(2-(4,4-difluoropiperidin-1-yl)-2-oxoethyl)-3,4-dihydro-1H-pyrimido[1,6-a]pyrimidin-6(2H)-one] were not above 100 nM and 0.2 nM. Taken in the same sequence, the figures for `O=c1nc(OCc2ccc(Oc3ccc(Cl)c(C(F)(F)F)c3)c(F)c2)cc2n1CCCN2C1CC1` [Example E8, 8-((4-(4-chloro-3-(trifluoromethyl)phenoxy)-3-fluorobenzyl)oxy)-1-cyclopropyl-3,4-dihydro-1H-pyrimido[1,6-a]pyrimidin-6(2H)-one] were not above 100 nM and 0.501 nM. `CCCNC(=O)CN1CCCn2c1cc(OCc1ccc(F)c(F)c1)nc2=O` [Example E13, 2-(8-((3,4-difluorobenzyl)oxy)-6-oxo-2,3,4,6-tetrahydro-1H-pyrimido[1,6-a]pyrimidin-1-yl)-N-propylacetamide]: the results for the IC50 (at Lp-PLA2 in human plasma; in assay [1]) were not above 100 nM and 3.16 nM, respectively. As to `CCCNC(=O)CN1CCCn2c1cc(OCc1cc(F)c(F)c(F)c1)nc2=O` [Example E24, 2-(6-oxo-8-((3,4,5-trifluorobenzyl)oxy)-2,3,4,6-tetrahydro-1H-pyrimido[1,6-a]pyrimidin-1-yl)-N-propylacetamide], the IC50 at Lp-PLA2 in human plasma is not above 100 nM. Still for that read-out and setting: the same measure for `O=C(CN1CCCn2c1cc(OCc1cc(F)c(F)c(F)c1)nc2=O)N1CCCC1` [Example E14, 1-(2-oxo-2-(pyrrolidin-1-yl)ethyl)-8-((3,4,5-trifluorobenzyl)oxy)-3,4-dihydro-1H-pyrimido[1,6-a]pyrimidin-6(2H)-one]: not above 100 nM.

Regarding `O=C(CN1CCCn2c1cc(OCc1cc(F)c(F)c(F)c1)nc2=O)N1CCOCC1` [Example E16, 1-(2-morpholino-2-oxoethyl)-8-((3,4,5-trifluorobenzyl)oxy)-3,4-dihydro-1H-pyrimido[1,6-a]pyrimidin-6(2H)-one], the IC50 at Lp-PLA2 in human plasma was not above 100 nM; in assay [1], 0.501 nM.

For `O=C(CN1CCCn2c1cc(OCc1ccc(F)c(F)c1)nc2=O)N1CCC(F)CC1` [Example E23, 8-((3,4-difluorobenzyl)oxy)-1-(2-(4-fluoropiperidin-1-yl)-2-oxoethyl)-3,4-dihydro-1H-pyrimido[1,6-a]pyrimidin-6(2H)-one], the IC50 on Lp-PLA2 in human plasma was not above 100 nM; in assay [1], 0.794 nM. In the case of `CNC(=O)CN1CCCn2c1cc(OCc1ccc(F)c(F)c1)nc2=O` [Example E17], at Lp-PLA2 in human plasma, the IC50 was not above 100 nM. For the compound `COc1ccc(CN2CCCn3c2cc(OCc2ccc(F)c(F)c2)nc3=O)cc1` [Example E4, 8-((3,4-difluorobenzyl)oxy)-1-(4-methoxybenzyl)-3,4-dihydro-1H-pyrimido[1,6-a]pyrimidin-6(2H)-one], the results for the IC50 (on Lp-PLA2 in human plasma; in assay [1]) were not above 100 nM and 1 nM, respectively. On the same counts, the results for `O=C(CN1CCCn2c1cc(OCc1ccc(F)c(F)c1)nc2=O)N1CCOCC1` [Example E22, 8-((3,4-difluorobenzyl)oxy)-1-(2-morpholino-2-oxoethyl)-3,4-dihydro-H-pyrimido[1,6-a]pyrimidin-6(2H)-one] are not above 100 nM and 0.794 nM. Turning to `CN1CCN(C(=O)CN2CCCn3c2cc(OCc2ccc(F)c(F)c2)nc3=O)CC1` [Example E19, 8-((3,4-difluorobenzyl)oxy)-1-(2-(4-methylpiperazin-1-yl)-2-oxoethyl)-3,4-dihydro-1H-pyrimido[1,6-a]pyrimidin-6(2H)-one], the IC50 at Lp-PLA2 in human plasma was not above 100 nM; in assay [1] it was 0.316 nM. Consider `O=c1nc(OCc2ccc(F)c(F)c2)cc2n1CCCN2Cc1ccccc1` [Example E1, 1-benzyl-8-((3,4-difluorobenzyl)oxy)-3,4-dihydro-1H-pyrimido[1,6-a]pyrimidin-6(2H)-one], for which the IC50 on Lp-PLA2 in human plasma is not above 100 nM. For the compound `COc1cccc(CN2CCCn3c2cc(OCc2ccc(F)c(F)c2)nc3=O)c1` [Example E6, 8-((3,4-difluorobenzyl)oxy)-1-(3-methoxybenzyl)-3,4-dihydro-1H-pyrimido[1,6-a]pyrimidin-6(2H)-one], the IC50 on Lp-PLA2 in human plasma was not above 100 nM; in assay [1], 1.58 nM. `O=c1nc(OCc2ccc(F)c(F)c2)cc2n1CCCN2Cc1ccc(Cl)cc1` [Example E2, 1-(4-chlorobenzyl)-8-((3,4-difluorobenzyl)oxy)-3,4-dihydro-1H-pyrimido[1,6-a]pyrimidin-6(2H)-one]: the IC50 in assay [1] is 0.631 nM. For the compound `O=c1nc(OCc2ccc(Oc3cccc(C(F)(F)F)c3)c(F)c2)cc2n1CCCN2C1CC1` [Example E9, 1-cyclopropyl-8-((3-fluoro-4-(3-(trifluoromethyl)phenoxy)benzyl)oxy)-3,4-dihydro-1H-pyrimido[1,6-a]pyrimidin-6(2H)-one], the IC50 on Lp-PLA2 in human plasma is not above 100 nM.

On to `O=C(CN1CCCn2c1cc(OCc1ccc(F)c(F)c1)nc2=O)N1CCCC1` [Example E18, 8-((3,4-difluorobenzyl)oxy)-1-(2-oxo-2-(pyrrolidin-1-yl)ethyl)-3,4-dihydro-1H-pyrimido[1,6-a]pyrimidin-6(2H)-one], for which the IC50 on Lp-PLA2 in human plasma is not above 100 nM.
